Assay results taken from ChEMBL document CHEMBL4725331, “An investigative study of antitumor properties of a novel thiazolo[4,5-d]pyrimidine small molecule revealing superior antitumor activity with CDK1 selectivity and potent pro-apoptotic properties” (Bioorg Med Chem, 2020).

Tests used:
HCT-116 [1] = experiment: Induction of apoptosis in human HCT-116 cells assessed as late apoptotic cells at IC50 incubated for 48 hrs by annexin-V FITC and propidium iodide staining based flow cytometry analysis (reference value: 0.28 %); assay type: functional
ACHN [2] = experiment: Antiproliferative activity against human ACHN cells assessed as inhibition of cell growth measured after 48 hrs by SRB assay; assay type: functional
U-251 = experiment: Antiproliferative activity against human U-251 cells assessed as inhibition of cell growth measured after 48 hrs by SRB assay; assay type: functional
UO-31 = experiment: Antiproliferative activity against human UO-31 cells assessed as inhibition of cell growth measured after 48 hrs by SRB assay; assay type: functional
OVCAR-5 = experiment: Antiproliferative activity against human OVCAR-5 cells assessed as inhibition of cell growth measured after 48 hrs by SRB assay; assay type: functional
RPMI-8226 = experiment: Antiproliferative activity against human RPMI-8226 cells assessed as inhibition of cell growth measured after 48 hrs by SRB assay; assay type: functional
MCF7 [3] = experiment: Antiproliferative activity against human MCF7 cells assessed as inhibition of cell growth measured after 48 hrs by SRB assay; assay type: functional
WI-38 [4] = experiment: Induction of apoptosis in human WI-38 cells assessed as late apoptotic cells at IC50 incubated for 48 hrs by annexin-V FITC and propidium iodide staining based flow cytometry analysis (reference value: 0.29 %); assay type: cell-based; settings: wi-38, 48 h
RXF 393 = experiment: Antiproliferative activity against human RXF 393 cells assessed as inhibition of cell growth at 10 uM measured after 48 hrs by SRB assay relative to control; assay type: functional
MCF7 [5] = experiment: Antiproliferative activity against human MCF7 cells assessed as inhibition of cell growth at 10 uM measured after 48 hrs by SRB assay relative to control; assay type: functional
SNB-75 = experiment: Antiproliferative activity against human SNB-75 cells assessed as inhibition of cell growth measured after 48 hrs by SRB assay; assay type: functional
ACHN [6] = experiment: Antiproliferative activity against human ACHN cells assessed as inhibition of cell growth at 10 uM measured after 48 hrs by SRB assay relative to control; assay type: functional
NCI-H322M = experiment: Antiproliferative activity against human NCI-H322M cells assessed as inhibition of cell growth measured after 48 hrs by SRB assay; assay type: functional
NCI-H23 = experiment: Antiproliferative activity against human NCI-H23 cells assessed as inhibition of cell growth at 10 uM measured after 48 hrs by SRB assay relative to control; assay type: functional
WI-38 [7] = experiment: Induction of apoptosis in human WI-38 cells assessed as necrotic cells at IC50 incubated for 48 hrs by annexin-V FITC and propidium iodide staining based flow cytometry analysis (reference value: 0.39 %); assay type: cell-based; settings: wi-38, 48 h
DU-145 = experiment: Antiproliferative activity against human DU-145 cells assessed as inhibition of cell growth at 10 uM measured after 48 hrs by SRB assay relative to control; assay type: functional
HCT-116 [8] = experiment: Antiproliferative activity against human HCT-116 cells assessed as inhibition of cell growth measured after 48 hrs by SRB assay; assay type: functional
SR = experiment: Antiproliferative activity against human SR cells assessed as inhibition of cell growth measured after 48 hrs by SRB assay; assay type: functional
[9] = read-out: LC50 (the source's name)

`COc1ccc(-n2c(=S)sc3c(Cl)nc(C)nc32)c(OC)c1` showed an Activity (HCT-116 [1]) of 12.78%, a GI50 (ACHN [2]) of 2.09 µM and a TGI (ACHN [2]) of 3.98 µM. For the same molecule, the CC50 (ACHN [2]; [9]) was 7.59 µM, the GI50 (U-251) was 1.91 µM and the TGI (U-251) was 3.63 µM. The CC50 (U-251; [9]) was 6.92 µM, the GI50 (UO-31) was 3.63 µM and the TGI (UO-31) was 15.5 µM. The CC50 (UO-31; [9]) was 39.8 µM, the GI50 (OVCAR-5) was 6.17 µM and the TGI (OVCAR-5) was 20.9 µM. The CC50 (OVCAR-5; [9]) was 53.7 µM, the GI50 (RPMI-8226) was 3.47 µM and the TGI (RPMI-8226) was 14.1 µM. For the same molecule, the CC50 (RPMI-8226; [9]) was > 100 µM, the GI50 (MCF7 [3]) was 3.63 µM and the TGI (MCF7 [3]) was 15.5 µM. For the same molecule, the CC50 (MCF7 [3]; [9]) was 87.1 µM, the Activity (WI-38 [4]) was 2.99% and the inhibition at 10 µM (RXF 393) was > 50%. For the same molecule, the inhibition at 10 µM (MCF7 [5]) was > 50%, the GI50 (SNB-75) was 1.95 µM and the TGI (SNB-75) was 4.27 µM. For the same molecule, the CC50 (SNB-75; [9]) was 9.33 µM, the inhibition at 10 µM (ACHN [6]) was > 50% and the GI50 (NCI-H322M) was 2.51 µM. For the same molecule, the TGI (NCI-H322M) was 6.46 µM, the CC50 (NCI-H322M; [9]) was 22.4 µM and the inhibition at 10 µM (NCI-H23) was > 50%. For the same molecule, the Activity (WI-38 [7]) was 1.41%, the inhibition at 10 µM (DU-145) was > 50% and the GI50 (HCT-116 [8]) was 1.82 µM. The TGI (HCT-116 [8]) was 3.72 µM, the CC50 (HCT-116 [8]; [9]) was 7.59 µM and the GI50 (SR) was 1.41 µM. The TGI (SR) was 5.5 µM and the CC50 (SR; [9]) was > 100 µM.
